In one assay the target is D(1A) dopamine receptor (Rattus norvegicus, UniProt P18901). In words: Displacement of [3H]SCH23390 from dopamine D1 receptor in rat corpus striatum.
Assay [1] concerns the target T1, 5-hydroxytryptamine receptor 1A (Rattus norvegicus, UniProt P19327).
T1 sequence (P19327 whole entry): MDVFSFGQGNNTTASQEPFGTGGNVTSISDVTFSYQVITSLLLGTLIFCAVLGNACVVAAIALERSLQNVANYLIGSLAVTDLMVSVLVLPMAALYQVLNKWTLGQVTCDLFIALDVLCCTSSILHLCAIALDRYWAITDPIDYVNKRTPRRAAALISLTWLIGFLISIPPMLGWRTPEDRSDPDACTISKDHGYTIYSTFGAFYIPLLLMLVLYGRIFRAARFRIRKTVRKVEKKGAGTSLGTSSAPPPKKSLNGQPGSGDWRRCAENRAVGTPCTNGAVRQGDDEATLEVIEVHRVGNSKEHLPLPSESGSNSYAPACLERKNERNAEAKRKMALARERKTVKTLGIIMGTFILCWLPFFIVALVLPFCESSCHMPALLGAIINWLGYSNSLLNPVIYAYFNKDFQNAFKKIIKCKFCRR
In words: Displacement of [3H]8-OH-DPAT from Serotonin 5-HT1A receptor in rat corpus striatum. A general note: Loss of bound radioactivity is the signal in a displacement assay; it reports binding, not function.

For another assay, the target named is D(2) dopamine receptor (Rattus norvegicus, UniProt P61169). In words: Displacement of [3H]neomonapride from dopamine D2 receptor in rat corpus striatum.
For a further assay, the species on record is Rattus norvegicus. The assay can be described thus: Selectivity ratio of […] in rat corpus striatum. The format is tissue-based.

D(1A) dopamine receptor, sequence (P18901 whole entry): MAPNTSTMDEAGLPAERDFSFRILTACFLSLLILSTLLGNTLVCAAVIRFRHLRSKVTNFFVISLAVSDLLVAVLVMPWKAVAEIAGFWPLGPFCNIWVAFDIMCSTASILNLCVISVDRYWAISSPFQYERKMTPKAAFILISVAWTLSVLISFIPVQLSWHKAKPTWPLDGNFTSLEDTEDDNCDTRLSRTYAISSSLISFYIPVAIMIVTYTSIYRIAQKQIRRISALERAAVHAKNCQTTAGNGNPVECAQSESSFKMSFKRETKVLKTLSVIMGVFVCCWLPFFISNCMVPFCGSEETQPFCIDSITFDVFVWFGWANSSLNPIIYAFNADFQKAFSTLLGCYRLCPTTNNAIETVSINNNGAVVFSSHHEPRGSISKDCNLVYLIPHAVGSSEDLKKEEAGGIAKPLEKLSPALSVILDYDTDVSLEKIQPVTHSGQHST
D(2) dopamine receptor, sequence (P61169 whole entry): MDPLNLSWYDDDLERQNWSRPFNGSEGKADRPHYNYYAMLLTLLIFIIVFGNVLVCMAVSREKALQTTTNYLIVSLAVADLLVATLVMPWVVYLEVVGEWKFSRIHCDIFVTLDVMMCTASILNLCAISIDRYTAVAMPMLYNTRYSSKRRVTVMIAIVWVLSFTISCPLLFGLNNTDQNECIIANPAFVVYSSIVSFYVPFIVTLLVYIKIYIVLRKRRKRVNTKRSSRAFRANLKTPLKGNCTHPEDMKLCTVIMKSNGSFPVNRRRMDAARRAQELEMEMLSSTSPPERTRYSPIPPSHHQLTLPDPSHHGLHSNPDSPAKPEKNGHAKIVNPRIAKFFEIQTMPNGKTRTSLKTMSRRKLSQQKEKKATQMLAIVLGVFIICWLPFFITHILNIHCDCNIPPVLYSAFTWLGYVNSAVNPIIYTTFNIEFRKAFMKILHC

With `CCOc1cccc2c1-c1cc(O)cc3c1[C@@H](C2)N(C)CC3`, the Ki (usually the equilibrium dissociation constant of an inhibitor or competing ligand from its target) was found to be 3.68 µM on D(1A) dopamine receptor, 0.432 µM in assay [1] and 0.641 µM on D(2) dopamine receptor. Besides, the Ratio in the assay filed under Rattus norvegicus worked out at 5.7.

For the compound `CCCN1CCc2cc(OC)cc3c2[C@H]1Cc1ccccc1-3`, the values for the inhibition constant (Ki) (on D(1A) dopamine receptor; in assay [1]) were above 10 µM and 1.6 µM, respectively.

`CCCN1CCc2cc(OCCO)cc3c2[C@H]1Cc1cccc(O)c1-3`: the Ki was above 10 µM at D(1A) dopamine receptor and 0.097 µM on D(2) dopamine receptor. The Ratio in the assay listed under Rattus norvegicus was above 103.

Take `CCCOc1cccc2c1-c1cc(O)cc3c1[C@@H](C2)N(C)CC3`: on D(1A) dopamine receptor, the Ki was 1.81 µM. This lies in the single-digit micromolar range.

Turning to `CN1CCc2cc(O)cc3c2[C@H]1Cc1cccc(OCCO)c1-3`, the values for the Ki (at D(1A) dopamine receptor; in assay [1]; at D(2) dopamine receptor) were above 10 µM, 0.289 µM and 3.34 µM, respectively. In the assay filed under Rattus norvegicus, the Ratio came to 3.

For `COc1cc2c3c(c1)-c1ccccc1C[C@H]3N(C)CC2`, the Ki on D(1A) dopamine receptor turned out to be 1.3 µM; in assay [1] it was 2.66 µM; on D(2) dopamine receptor, 0.731 µM. In the assay listed under Rattus norvegicus, the Ratio amounted to 1.8.

The record behind these values is ChEMBL document CHEMBL1155098, “Synthesis and binding studies of 2-O- and 11-O-substituted N-alkylnoraporphines” (Bioorg Med Chem Lett, 2008).
